# Laboratory results published in ChEMBL document CHEMBL3885861, “Open TG-GATES”.
# Species on record: Rattus norvegicus
# Experiment: Open TG-GATES - Regimen: Single
# Type: toxicity, organism-based, Sprague-Dawley
# Design: regimen Single, gender Male, age 6 weeks
# Details: in vivo, po, 100 mg/kg, route gavage, dose level Low; for APTT / Bas / Eos / Fbg / Hb / Ht / Lym / MCH / MCHC / MCV / Mono / Neu / PT / Plat / RBC / Ret / WBC: tissue Blood; for KIDNEY_L / KIDNEY_R / KIDNEY_TOTAL: tissue Kidney; for LIVER: tissue Liver; for A/G / ALP / ALT / AST / BUN / CRE / Ca / Cl / DBIL / GLC / IP / K / LDH / Na / PL / RALB / TBIL / TC / TG / TP / gamma-GTP: tissue Plasma
structure (smiles),measurement,setting,value
CC[C@@H](CO)NCCN[C@@H](CC)CO [ETHAMBUTOL],TERMINAL_BW,3 h,224 g
same,APTT,3 h,21.6 s
same,Bas,3 h,0%
same,Eos,3 h,0.8%
same,Fbg,3 h,308 mg/dL
same,Hb,3 h,13.7 g/dL
same,Ht,3 h,40%
same,Lym,3 h,80.4%
same,MCH,3 h,21.9 pg
same,MCHC,3 h,34.1%
same,MCV,3 h,64.2 fL
same,Mono,3 h,2.4%
same,Neu,3 h,14.8%
same,PT,3 h,15.6 s
same,Plat,3 h,118 x10_4/uL
same,RBC,3 h,623.8 x10_4/ul
same,Ret,3 h,8.1%
same,WBC,3 h,87.8 x10_2/uL
same,KIDNEY_L,3 h,1 g
same,KIDNEY_R,3 h,1 g
same,KIDNEY_TOTAL,3 h,2 g
same,LIVER,3 h,10.9 g
same,A/G,3 h,1.2
same,ALP,3 h,1530.6 IU/L
same,ALT,3 h,41 IU/L
same,AST,3 h,73 IU/L
same,BUN,3 h,12.6 mg/dL
same,CRE,3 h,0.1 mg/dL
same,Ca,3 h,10.4 mg/dL
same,Cl,3 h,107.4 meq/L
same,DBIL,3 h,0 mg/dL
same,GLC,3 h,189.8 mg/dL
same,IP,3 h,8.6 mg/dL
same,K,3 h,4 meq/L
same,LDH,3 h,172.8 IU/L
same,Na,3 h,142.2 meq/L
same,PL,3 h,134.2 mg/dL
same,RALB,3 h,3 g/dL
same,TBIL,3 h,0.018 mg/dL
same,TC,3 h,72.6 mg/dL
same,TG,3 h,74.4 mg/dL
same,TP,3 h,5.4 g/dL
same,gamma-GTP,3 h,1.8 IU/L
same,TERMINAL_BW,6 h,222.5 g
same,APTT,6 h,21.1 s
same,Bas,6 h,0%
same,Eos,6 h,0.8%
same,Fbg,6 h,318 mg/dL
same,Hb,6 h,13.5 g/dL
same,Ht,6 h,39.8%
same,Lym,6 h,78.8%
same,MCH,6 h,21.8 pg
same,MCHC,6 h,33.9%
same,MCV,6 h,64.2 fL
same,Mono,6 h,2.8%
same,Neu,6 h,16%
same,PT,6 h,15.8 s
same,Plat,6 h,119.6 x10_4/uL
same,RBC,6 h,620.4 x10_4/ul
same,Ret,6 h,7.4%
same,WBC,6 h,92.6 x10_2/uL
same,KIDNEY_L,6 h,1 g
same,KIDNEY_R,6 h,1.1 g
same,KIDNEY_TOTAL,6 h,2.1 g
same,LIVER,6 h,10.2 g
same,A/G,6 h,1.2
same,ALP,6 h,1476.2 IU/L
same,ALT,6 h,45.6 IU/L
same,AST,6 h,77 IU/L
same,BUN,6 h,12.6 mg/dL
same,CRE,6 h,0.2 mg/dL
same,Ca,6 h,10.3 mg/dL
same,Cl,6 h,106.6 meq/L
same,DBIL,6 h,0 mg/dL
same,GLC,6 h,180.4 mg/dL
same,IP,6 h,9.2 mg/dL
same,K,6 h,4.3 meq/L
same,LDH,6 h,191.6 IU/L
same,Na,6 h,140 meq/L
same,PL,6 h,128.6 mg/dL
same,RALB,6 h,2.9 g/dL
same,TBIL,6 h,0.02 mg/dL
same,TC,6 h,72.8 mg/dL
same,TG,6 h,54.6 mg/dL
same,TP,6 h,5.3 g/dL
same,gamma-GTP,6 h,1.8 IU/L
same,TERMINAL_BW,9 h,224.5 g
same,APTT,9 h,22.3 s
same,Bas,9 h,0%
same,Eos,9 h,1%
same,Fbg,9 h,293.4 mg/dL
same,Hb,9 h,13.3 g/dL
same,Ht,9 h,38.9%
same,Lym,9 h,80%
same,MCH,9 h,21.8 pg
same,MCHC,9 h,34.2%
same,MCV,9 h,63.6 fL
same,Mono,9 h,2.2%
same,Neu,9 h,15.6%
same,PT,9 h,16.2 s
same,Plat,9 h,116.9 x10_4/uL
same,RBC,9 h,613 x10_4/ul
same,Ret,9 h,8%
same,WBC,9 h,92.7 x10_2/uL
same,KIDNEY_L,9 h,1 g
same,KIDNEY_R,9 h,1 g
same,KIDNEY_TOTAL,9 h,2.1 g
same,LIVER,9 h,9.4 g
same,A/G,9 h,1.1
same,ALP,9 h,1292.4 IU/L
same,ALT,9 h,36.6 IU/L
same,AST,9 h,66.8 IU/L
same,BUN,9 h,10 mg/dL
same,CRE,9 h,0.2 mg/dL
same,Ca,9 h,10.1 mg/dL
same,Cl,9 h,106.6 meq/L
same,DBIL,9 h,0 mg/dL
same,GLC,9 h,186.2 mg/dL
same,IP,9 h,9 mg/dL
same,K,9 h,4.2 meq/L
same,LDH,9 h,143 IU/L
same,Na,9 h,140.2 meq/L
same,PL,9 h,128.2 mg/dL
same,RALB,9 h,2.9 g/dL
same,TBIL,9 h,0.02 mg/dL
same,TC,9 h,75.4 mg/dL
same,TG,9 h,59.2 mg/dL
same,TP,9 h,5.4 g/dL
same,gamma-GTP,9 h,1.8 IU/L
same,TERMINAL_BW,24 h,238.5 g
same,APTT,24 h,22.6 s
same,Bas,24 h,0%
same,Eos,24 h,0.6%
same,Fbg,24 h,333.2 mg/dL
same,Hb,24 h,13.4 g/dL
same,Ht,24 h,38.7%
same,Lym,24 h,82.4%
same,MCH,24 h,21.7 pg
same,MCHC,24 h,34.7%
same,MCV,24 h,62.7 fL
same,Mono,24 h,2.2%
same,Neu,24 h,14%
same,PT,24 h,15.9 s
same,Plat,24 h,119.4 x10_4/uL
same,RBC,24 h,618.4 x10_4/ul
same,Ret,24 h,7.6%
same,WBC,24 h,93.8 x10_2/uL
same,KIDNEY_L,24 h,1 g
same,KIDNEY_R,24 h,1.1 g
same,KIDNEY_TOTAL,24 h,2.1 g
same,LIVER,24 h,11.9 g
same,A/G,24 h,1.2
same,ALP,24 h,1636.2 IU/L
same,ALT,24 h,46.8 IU/L
same,AST,24 h,75.6 IU/L
same,BUN,24 h,17 mg/dL
same,CRE,24 h,0.1 mg/dL
same,Ca,24 h,10.7 mg/dL
same,Cl,24 h,106.6 meq/L
same,DBIL,24 h,0 mg/dL
same,GLC,24 h,186 mg/dL
same,IP,24 h,8.2 mg/dL
same,K,24 h,4.1 meq/L
same,LDH,24 h,129.2 IU/L
same,Na,24 h,141.8 meq/L
same,PL,24 h,157.6 mg/dL
same,RALB,24 h,3.1 g/dL
same,TBIL,24 h,0.012 mg/dL
same,TC,24 h,88.8 mg/dL
same,TG,24 h,87.4 mg/dL
same,TP,24 h,5.7 g/dL
same,gamma-GTP,24 h,2.2 IU/L
